Results from PubChem BioAssay (NCI).
“And” between values parts separate entries of the source, which are not always exact repeats. Identical values can stand only once.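 Protocol summary: plate cells (96-well), add compound at 5 concentrations, incubate 48 h, interpolate endpoints linearly. GI50: concentration for 50% inhibition of growth. TGI: concentration producing complete growth inhibition.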

Columns and labels:
Experiment in all cases: NCI anticancer screen, dose series, 48 h
SF-539 CNS = tested on: SF-539 CNS
M14 melanoma = tested on: M14 melanoma
SNB-19 CNS = tested on: SNB-19 CNS
RPMI-8226 leukemia = tested on: RPMI-8226 leukemia
HCT-15 colon = tested on: HCT-15 colon
HCC-2998 colon = tested on: HCC-2998 colon
SF-295 CNS = tested on: SF-295 CNS
NCI-H522 lung = tested on: NCI-H522 lung
SW-620 colon = tested on: SW-620 colon
SF-268 CNS = tested on: SF-268 CNS

Row | SMILES | GI50 (SF-539 CNS) [µM] | GI50 (M14 melanoma) | TGI (M14 melanoma) [µM] | TGI (SNB-19 CNS) | GI50 (RPMI-8226 leukemia) | TGI (RPMI-8226 leukemia) | GI50 (HCT-15 colon) | TGI (HCT-15 colon) | TGI (HCC-2998 colon) | TGI (SF-295 CNS) | TGI (NCI-H522 lung) | TGI (SW-620 colon) [µM] | TGI (SF-268 CNS) | TGI (SF-539 CNS) | GI50 (SNB-19 CNS) [µM] | GI50 (HCC-2998 colon) [µM] | GI50 (SF-295 CNS) [µM] | GI50 (NCI-H522 lung) [µM] | GI50 (SW-620 colon) | GI50 (SF-268 CNS) [µM]
1 | Cc1c2cc[n+](C)cc2c(C)c2c1[nH]c1ccc(OCC(F)(F)F)cc12 | 1.73 | 11.6 µM and > 94.3 µM | > 100 | 3.02 µM | 4.27 µM and 23.7 µM | 43 µM and > 88 µM | 44.6 µM and > 100 µM | > 100 µM | 34.5 µM and > 100 µM | 2.22 µM | 5.64 µM and 4.83 µM | > 100 | 0.638 µM |  |  |  |  |  |  | 
2 | O=C1CC(c2cccc([N+](=O)[O-])c2)C2(C(=O)NC(=S)NC2=O)C(c2cccc([N+](=O)[O-])c2)C1 (stereo unspecified) |  |  | 58.5 | 58.8 µM |  | > 100 µM |  | > 100 µM | 59.2 µM | > 100 µM | 89.6 µM | > 100 | 43.4 µM | > 100 µM |  |  |  |  |  | 
3 | C[C@]12CC[C@H]3[C@@H](CC=C4C[C@@H](O)CC[C@@]43C)[C@@H]1C/C(=C\c1ccc([N+](=O)[O-])cc1)[C@@H]2O |  |  | > 100 | 38.7 µM |  | > 100 µM |  | > 100 µM | 30.4 µM | 46.5 µM | 32.7 µM | > 100 | > 100 µM | 34.5 µM |  |  |  |  |  | 
4 | CC(C)=CCNc1ncnc2c1ncn2CCC(=O)O |  |  | > 100 | > 100 µM |  | > 100 µM |  | > 100 µM | > 100 µM | > 100 µM | > 100 µM | > 100 | > 100 µM | > 100 µM |  |  |  |  |  | 
5 | CCOC(=O)c1cnc2n(c1=O)[C@H]1CCCC[C@@H]1N2 |  |  | > 100 | > 100 µM |  | > 100 µM |  | > 100 µM | > 100 µM | > 100 µM | > 100 µM | > 100 | > 100 µM | > 100 µM |  |  |  |  |  | 
6 | C(=Nc1ccc(-c2nc3ccccc3s2)cc1)c1cccs1 |  |  | > 100 | > 100 µM |  | > 100 µM |  | > 100 µM | > 100 µM | 68.8 µM | > 100 µM | > 100 | > 100 µM | > 100 µM |  |  |  |  |  | 
7 | C[C@H](CCc1nc(C#N)c(N)o1)[C@H]1CC[C@H]2[C@@H]3CCC4C[C@@H](O)CC[C@]4(C)[C@H]3C[C@@H](O)[C@]12C (stereo partly specified) |  |  | 34.2 | 31 µM |  | 6.05 µM |  | 29.5 µM | 31.2 µM | 30.5 µM | 16.2 µM | 27.4 | 27.8 µM | 27.6 µM |  |  |  |  |  | 
8 | CC(C)=CC(=O)OC1C2C(C)=CC(=O)C(O)C2(C)C2C3(O)OCC24C(CC(=O)OC14)C(C)C3O (stereo unspecified) | 0.02 |  | 0.00826 | 0.0303 µM and 0.0462 µM | 0.02 µM | 0.028 µM and 0.0291 µM | 0.0579 µM and 0.0541 µM | 0.212 µM and 0.853 µM and 0.687 µM | 0.0532 µM and 0.0278 µM and 0.0513 µM | 0.154 µM and 0.0672 µM and 0.0966 µM | 0.011 µM and 0.0215 µM |  | 0.049 µM and 0.014 µM and 0.091 µM | 0.0132 µM and 0.0415 µM | 0.0273 | 0.0229 | 0.0126 | 0.02 | 0.0108 µM and 0.0265 µM | 0.0088
9 | Cc1oc(N)c(S(=O)(=O)/C(C#N)=C/c2ccccc2[N+](=O)[O-])c1C |  |  | 41.4 | 77.4 µM |  | 75.2 µM |  | > 100 µM | > 100 µM | > 100 µM | 41 µM | 63.1 | > 100 µM | 61.4 µM |  |  |  |  |  | 
10 | O=C(NNC(=O)c1ccc(Cl)cc1NC(=O)C12CC3CC(CC(C3)C1)C2)c1ccc(Cl)cc1 |  |  | 57.6 | 39.4 µM |  | 38.4 µM |  | 35.9 µM | 33.4 µM | 57 µM | 36 µM | > 100 | > 100 µM | 46.6 µM |  |  |  |  |  | 
11 | O=Cn1c2ccccc2c2ccccc21 |  |  | > 100 | > 100 µM |  | > 100 µM |  | > 100 µM | > 100 µM | > 100 µM | > 100 µM | > 100 | > 100 µM | > 100 µM |  |  |  |  |  | 
12 | Cc1cccc(NC(=S)Nc2cccc(Cl)c2)n1 |  |  | > 100 | > 100 µM |  | > 100 µM |  | > 100 µM | > 100 µM | > 78.4 µM | > 100 µM | > 100 | > 100 µM | > 100 µM |  |  |  |  |  | 
13 | CCOP(=O)(OCC)C(c1ccccc1)N(C(=O)NC(F)(F)F)c1ccc(C)cc1 (stereo unspecified) |  |  | > 100 | > 100 µM |  | > 100 µM |  | > 100 µM | > 100 µM | > 100 µM | > 100 µM | > 100 | > 100 µM | > 100 µM |  |  |  |  |  | 
14 | C[C@@H]([C@H]1CC[C@@]2(C)[C@@H]3CC[C@@H]4C(=CC3=CC[C@]12C)CC[C@H](N(C)C)C4(C)C)N(C)C |  |  | > 100 | > 100 µM |  | > 100 µM |  | > 100 µM | > 100 µM | > 100 µM | > 100 µM | > 100 | > 100 µM | > 100 µM |  |  |  |  |  | 
15 | COc1ccc(N=C(C)C(C)=Nc2ccc(OC)cc2)cc1 |  |  | > 100 | > 100 µM |  | > 100 µM |  | > 100 µM | 82.6 µM | > 100 µM | > 100 µM | > 100 | > 100 µM | > 100 µM |  |  |  |  |  | 
